From patent publication US11629135B2 (JUBILANT PRODEL LLC, priority 2017, dated 2023)

Legend:
[1] = target: T1, PD-1/PD-L1 interaction (Homo sapiens, UniProt Q9NZQ7); assay: PD-1/PD-L1 Homogenous Time-Resolved Fluorescence (HTRF) binding assay; settings: Biochemical PD1/PD-L1 inhibition
T1 construct: Tag1 or Tag2 (undisclosed kit tag); purchased CisBio 63ADK000CPAPEG
Description: PD-L1 Enzyme Assay: Homogenous Time-Resolved Fluorescence (HTRF) Binding Assay
All binding studies were performed using PD-1/PD-L1 Binding Assay Kit from CisBio (Catalog #63ADK000CPAPEG), according to the manufacturer's protocol. The interaction between Tag1-PD-1 and […] was detected by anti-Tag1-Eu^3+ (HTRF donor) and anti-Tag2-XL665 (HTRF acceptor). When the donor and acceptor antibodies were brought to close proximity due to PD-1 and PD-L1 binding, excitation of the donor antibody triggered fluorescent resonance energy transfer (FRET) towards the acceptor antibody, which in turn emitted specifically at 665 nm. This specific signal is positively proportional to PD-1/PD-L1 interaction. The compounds blocking PD-1/PD-L1 interaction will cause a reduction in HTRF signal. The necessary reagents were mixed in the following order: 2 μl compounds (or diluents buffer), 4 μl PD-L1 protein, 4 μl PD-1 protein. After an incubation of 15 minutes, 5 μl of anti-Tag1-Eu^3+ and 5 μl of anti-Tag2-XL665 were added. The plate was sealed and incubated at RT for 1 h. The fluorescence emission was read at two different wavelengths (665 nm and 620 nm) on a BMG PheraStar® multiplate reader. Results were calculated from the 665 nm and 620 nm fluorescence signal and expressed in HTRF ratio=(665 nm/620 nm)×[…].

[2] = Metabolic stability in liver microsomes (human); format: in vitro ADME; settings: human liver microsomes 0.5 mg/mL, compound 1 μM, NADPH, up to 30 min
Description: Metabolic Stability in Liver Microsomes
Procedure: Potassium phosphate buffer (66.7 mM, pH 7.4) containing mouse or rat or dog or monkey or human liver microsomes (0.5 mg/mL) was pre-incubated separately with compound (1 μM) and positive control (verapamil, 1 μM) in a 37° C. water bath for 5 min. The reactions were initiated by adding 20 μL of 10 mM NADPH. Reactions without NADPH (0 and 30 min) were also incubated to rule out non-NADPH metabolism or chemical instability in the incubation buffer. All reactions were terminated using 200 μL of ice-cold acetonitrile containing internal standard at 0, 5, 15 and 30 min. The vials were centrifuged at 3000 rpm for 15 min. The reaction mixtures (obtained from the above studies) were extracted, processed and analyzed by LC-MS [Shimadzu SIL LC series (Kyoto, Japan) was coupled to an API-4000 Mass Spectrometer (MDS Sciex, Toronto, Canada)] to monitor the disappearance of compound.

[3] = Plasma protein binding by equilibrium dialysis; format: in vitro ADME, mouse; settings: pH 7.4; mouse plasma, 3 μM, equilibrium dialysis 4.5 h
Description: (§1) To evaluate the ability of compound to bind the plasma proteins, the most common approach of plasma protein binding using equilibrium dialysis was used. Compound was tested at a final concentration of 3 μM in mouse, rat, human or dog plasma. An aliquot of 150 μL plasma containing compound was added in first half (plasma side) of the well of 96-well micro-equilibrium dialysis device. An aliquot of 150 μL of 100 mM sodium phosphate buffer pH 7.4 was added in the second half (buffer side) of the well of 96-well HT equilibrium dialysis device. The plate containing plasma and buffer was equilibrated at 37±1° C. for 4.5 h, with constant shaking at 120 rpm on an orbital shaker. Samples were collected from respective halves after the completion of incubation time. The proteins were precipitated using organic solvents. The samples were subjected to centrifugation and the supernatants were analyzed analysis on LC-MS/MS.

[4] = system: plasma proteins; assay: Plasma protein binding by equilibrium dialysis; format: in vitro ADME, mouse; settings: plasma, equilibrium dialysis
Description: as §1

[5] = target: T2, CYP 2D6 (Homo sapiens, UniProt P10635); assay: CYP inhibition in human liver microsomes (CYP2D6); format: in vitro ADME; settings: hydroxylation of bufuralol, read-out: predicted IC50, CYP 2D6
T2 construct: assessed in human liver microsomes (procured from GIBCO Invitrogen); tissue GIBCO Invitrogen; host or cells: human liver microsomes
Description: CYP inhibition potential of compound was assessed in human liver microsomes (procured from GIBCO Invitrogen) against CYP3A4, 2D6, 2C9, 2C19 and 1A2 in the following sequential steps. Standard reaction mixture (final volume 300 μL) contained […] potassium phosphate buffer (pH 7.4), protein (0.1, 0.25, 0.5, 0.5 and 0.5 mg/mL concentration for CYP3A4, 2D6, 2C9 2C19 and 1A2 respectively) and compound (at eight different concentration levels ranging from […], added as 0.9 μL DMSO solution with a final DMSO concentration of […]). The mixtures were pre-incubated at 37±1° C. for 5 min. The reaction (in duplicate) was initiated by addition of 30 μL of NADPH (10 mM). Reaction was terminated at 10 min by adding 300 μL of acetonitrile. The activity of liver microsomes was confirmed with positive controls i.e., monitoring the hydroxylation of midazolam for CYP 3A4, hydroxylation of bufuralol for CYP 2D6, hydroxylation of diclofenac for CYP 2C9, hydroxylation of omeprazole for CYP2C19 and O-Deethylation for CYP 1A2. The reaction mixtures (obtained from the above studies) were extracted, processed and analyzed by LC-MS [Shimadzu SIL LC series (Kyoto, Japan) was coupled to an API-4000 Mass Spectrometer (MDS Sciex, Toronto, Canada)].

[6] = system: RENCA renal cancer cell line; assay: In vivo efficacy in RENCA renal model; parameters: species or system Balb/c mice; settings: oral dosing
Description: In Vivo Efficacy of Compound-45 in RENCA Renal Model (FIG. 1):
RENCA renal cancer cell line was procured from ATCC, USA and grown in the recommended media and culture conditions. Cells in the exponential phase were mixed with equal volume of matrigel in a 1:1 ratio, followed by implantation of 1×10^6 cells/100 μl subcutaneously on the right flank of immunocompetant Balb/c mice (1 site/mouse). Tumor cells were engrafted at the site of injection within 1-2 weeks of implantation and treatment was initiated by randomizing mice into study groups of N=10, when the average tumor volume reached 100 mm^3. Tumor bearing mice were treated with Vehicle (oral), Vehicle (IP), Compound B (orally at 30 mg/kg dose, twice daily) or Anti-PD-L1 mAb (Clone 10F.9G2, BioXcell) intraperitoneally at 0.1 mg/mouse, Q4D. Tumor volume and mouse body weight was measured three times per week during treatment, until the tumor volume reached a maximum of 2000 mm^3. Tumor volume (mm^3) was calculated using the formula—(tumor length)×(tumor width)^2/2. For pharmacokinetic parameters of Compound B, plasma and tumors were isolated at the end of the study and analyzed. Tumor growth inhibition was calculated after normalizing the tumor volume on a given day to that on day 1 based on the formula below: % TGI=[1−(Treatment TVFinal−Treatment TVinitial)/(Vehicle TVFinal−Vehicle TVinitial)]*100

T1 sequence (Q9NZQ7 19-238 limits assumed): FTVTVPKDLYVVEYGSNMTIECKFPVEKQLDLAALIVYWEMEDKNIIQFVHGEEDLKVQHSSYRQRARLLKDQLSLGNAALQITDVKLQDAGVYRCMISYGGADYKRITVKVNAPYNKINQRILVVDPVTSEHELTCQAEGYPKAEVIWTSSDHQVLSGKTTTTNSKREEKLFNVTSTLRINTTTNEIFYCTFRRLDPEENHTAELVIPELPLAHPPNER
T2 sequence (P10635 whole entry): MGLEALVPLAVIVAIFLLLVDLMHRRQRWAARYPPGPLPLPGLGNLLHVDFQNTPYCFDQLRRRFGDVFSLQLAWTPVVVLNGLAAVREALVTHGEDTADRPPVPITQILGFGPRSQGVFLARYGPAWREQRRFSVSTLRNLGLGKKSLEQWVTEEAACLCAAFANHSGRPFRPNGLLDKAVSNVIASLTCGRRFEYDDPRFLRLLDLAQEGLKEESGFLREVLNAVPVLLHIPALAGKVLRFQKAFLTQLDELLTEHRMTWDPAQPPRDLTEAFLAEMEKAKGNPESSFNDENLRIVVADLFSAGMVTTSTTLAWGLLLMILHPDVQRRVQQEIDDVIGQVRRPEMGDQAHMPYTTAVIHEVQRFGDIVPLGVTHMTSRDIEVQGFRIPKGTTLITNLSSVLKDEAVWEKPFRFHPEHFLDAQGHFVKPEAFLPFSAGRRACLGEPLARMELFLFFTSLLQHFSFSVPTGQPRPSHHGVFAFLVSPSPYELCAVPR

## COc1nc(OCc2cccc(-c3ccccc3)c2C)nc(OC)c1CN1CCCC[C@H]1C(=O)O [Compound 45, (S)-1-((4,6-dimethoxy-2-((2-methyl-[1,1′-biphenyl]-3-yl)methoxy)pyrimidin-5-yl)methyl)piperidine-2-carboxylic acid]
[1]
  IC50: < 0.1 µM
[2]
  Metabolic stability in liver microsomes: > 80%
[3]
  fraction unbound at 4.5 h, 3 μM: 0.039
[4]
  stability and recovery in plasma: good
[5]
  IC50: > 10 µM
[6]; RENCA tumor bearing Balb/c mice
  body weight during the dosing regimen: no significant body weight reduction
[6]; syngeneic Balb/c mice, 30 mg/kg twice daily, comparator Anti-PD-L1 mAb 0.1 mg/mouse IP Q4D
  efficacy in RENCA renal model (tumor growth): better or similar efficacy compared to PD-L1 monoclonal antibody
